≈ marks a conversion by molar mass, not a printed value.
What was measured:
[1] = test system: HCT-116 cells; assay: NanoString nCounter gene expression profiling; format: cell-based, human
Description: Gene expressions of the cancer canonical pathways were measured by NanoString nCounter. HCT-116 cells were treated with Dis for 48 h and total RNA were extracted by using RNeasy Mini Kit (QiAgen, Hilden, Germany) according to the manufacture’s protocol. Concentrations of RNA were checked through NanoDrop 2000C (Thermo Scientific™, Pittsburgh, PA, USA). Pancancer pathways panel on Nanostring nCounter system (Nanostring Technologies, Inc., Seattle, WA, USA) were used to investigate the gene expression profile of cancer pathways. A total of 770 genes were investigated and compared between Dis treated and untreated cells. The list of investigated genes is provided as supplementary data (Table S1). RNA was hybridized, purified and immobilized before being aligned on the nCounter cartridge and introduced to nCounter.
Digital Analyzer was utilized for data collection according to the manufacturer’s instruction. Briefly, RNA samples were added to the master mix contain hybridization buffer and reporter CodeSet. Capture ProbeSet was added to this mixture and introduced to pre-heated 65 °C thermal cycler for 16 h incubation. After removing the unbound probe, target/probe were immobilized and aligned on the nCounter Cartridge. nCounter digital analyzer was used to collect the nCounter cartridge data and data were analyzed using nSolver 3.0 analysis software. Significant genes were choose based on the false discovery rate (FDR) <0.05 and log2 fold change ≥ ± 0.5 supplementary data (Figure S1).

[2] = test system: Colo205; parameters: method as in PMID 19424633, PMID 27176768, PMID 26847170, PMID 20183323; settings: Colo205, 24 h treatment; ref [10],[13],[15],[47]; cited from earlier work
[3] = test system: HepG-2; parameters: method as in PMID 19424633, PMID 27176768, PMID 26847170, PMID 20183323; settings: HepG-2, 24 h treatment; ref [10],[13],[15],[47]; cited from earlier work
[4] = test system: MDA-MB 468; parameters: method as in PMID 19424633, PMID 27176768, PMID 26847170, PMID 20183323; settings: MDA-MB 468, 24 h treatment; ref [10],[13],[15],[47]; cited from earlier work
[5] = test system: HT-29 cells; assay: MTT cytotoxicity assay, HT-29; format: cell-based, human; settings: for IC50: Homo sapiens, MTT
Description: [Worded in the source for another cell line; this cell line is reported under the same test.] Cytotoxicity property of Dis against HCT-116 and CCD-841 cells were measured by MTT assay as described by Mossman[77]. Briefly, cells were treated with different concentration of Dis and 5-Fu (positive control) with serial dilution factor of 2 for 8 concentrations in 96 well-plate for different time points (24 h, 48 h and 72 h). Subsequently at the end of each time point 20 µl of MTT (5 mg/ml, Affymetrix,Cleveland, OH, USA) were added to each well followed by 4 h incubation. The solutions were aspirated after 4 h and 100 µl of DMSO were added to each well. Absorbance for each well was read at 570 nm as measured by using microplate reader (Tecan Infinite multimode, Männedorf, Switzerland). Cytotoxicity (cell death) was measured by using the following formula: Celldeath(%)=sampleOD−controlOD/controlOD100
This assay was performed in triplicates in three independent experiments. The cytotoxicity property of Dis was presented as IC50 value.

[6] = test system: HCT-116 cells; assay: Multiple cytotoxicity assay (Cellomics multiparameter cytotoxicity 3 kit); format: cell-based, human; settings: HCT-116, Dis 3.58 µg/ml
Description: Cellomics multiparameter cytotoxicity 3 kit (Thermo Scientific™, Pittsburgh, PA, USA) was used to investigate the vital apoptotic events in HCT-116 cells in the presence of Dis. Cytotoxicity 3 assay was used to provide information about the changes in nuclear morphology, cell membrane integrity, cytochrome C release and mitochondrial outer membrane permeabilization (MOMP). HCT-116 cells were seeded in 24 well-plate and covered by a cover slide followed by treatment with Dis for 24 h, 48 h and 72 h. Treated cells were stained with YoYo dye (life technology, CA, USA) and Mitotracker dye (life technology, CA, USA) followed by fixation and blocking procedures according to the manufacture’s protocol. Primary cytochrome C (Thermo Scientific™, Pittsburgh, PA, USA) antibody and secondary DyLight 650 (Thermo Scientific™, Pittsburgh, PA, USA) were added to each well and incubated for 1 h in the dark. Hoechst 33342 dye (Thermo Scientific™, Pittsburgh, PA, USA) was added in the last step to stain the nuclei of the cells. Cells were washed and cover slides were transferred on the slide and introduced to confocal Leica TCS SP5 II microscope (Leica Microsystems, Mannheim, Germany). Intensity of each dye was measured by using LAS X software.

[7] = test system: MCF-10; parameters: method as in PMID 19424633, PMID 27176768, PMID 26847170, PMID 20183323; settings: MCF-10 non-cancerous cells, 24 h; ref [10],[13],[15],[47]; cited from earlier work

## COc1ccc(-c2cc(=O)c3c(O)cc(O)cc3o2)cc1O [Dis, Diosmetin]
[1]; HCT-116, Dis treated
  gene expression of NF-ƙB inhibitor (iƙb-α): elevates
[1]; gene Fubp1, HCT-116, Dis 48 h vs untreated
  Log2 fold change, Fubp1: −0.5
[1]; gene Prkar2b, HCT-116, Dis 48 h vs untreated
  Log2 fold change, Prkar2b: −1.6
[1]; gene bax, HCT-116, Dis 48 h vs untreated
  Log2 fold change, bax: 0.5
[1]; gene bmp8a, HCT-116, Dis 48 h vs untreated
  Log2 fold change, bmp8a: −2.2
[1]; gene ccna2 (cyclin A), HCT-116, Dis 48 h vs untreated
  Log2 fold change, ccna2 (cyclin A): −0.6
[1]; gene ccnb1 (cyclin B), HCT-116, Dis 48 h vs untreated
  Log2 fold change, ccnb1 (cyclin B): −0.5
[1]; gene cdc7, HCT-116, Dis 48 h vs untreated
  Log2 fold change, cdc7: −0.8
[1]; gene cdc25, HCT-116, Dis 48 h vs untreated
  Log2 fold change, cdc25: −0.6
[1]; gene cdkn1a (p21), HCT-116, Dis 48 h vs untreated
  Log2 fold change, cdkn1a (p21): 1.5
[1]; gene fas, HCT-116, Dis 48 h vs untreated
  Log2 fold change, fas: 0.8
[1]; gene gadd45, HCT-116, Dis 48 h vs untreated
  Log2 fold change, gadd45: 0.8
[1]; gene h2afx, HCT-116, Dis 48 h vs untreated
  Log2 fold change, h2afx: −0.9
[1]; gene h3f3a (h2a), HCT-116, Dis 48 h vs untreated
  Log2 fold change, h3f3a (h2a): −0.9
[1]; gene hdac1, HCT-116, Dis 48 h vs untreated
  Log2 fold change, hdac1: −0.5
[1]; gene hdac2, HCT-116, Dis 48 h vs untreated
  Log2 fold change, hdac2: −0.6
[1]; gene hdac5, HCT-116, Dis 48 h vs untreated
  Log2 fold change, hdac5: −2.6
[1]; gene hells, HCT-116, Dis 48 h vs untreated
  Log2 fold change, hells: −0.6
[1]; gene hist1h3b, HCT-116, Dis 48 h vs untreated
  Log2 fold change, hist1h3b: −1.2
[1]; gene hist1h3h, HCT-116, Dis 48 h vs untreated
  Log2 fold change, hist1h3h: −1.5
[1]; gene hspb1 (hsp27), HCT-116, Dis 48 h vs untreated
  Log2 fold change, hspb1 (hsp27): −2.2
[1]; gene id1, HCT-116, Dis 48 h vs untreated
  Log2 fold change, id1: −0.5
[1]; gene id2, HCT-116, Dis 48 h vs untreated
  Log2 fold change, id2: −2.0
[1]; gene mad2l2, HCT-116, Dis 48 h vs untreated
  Log2 fold change, mad2l2: −0.6
[1]; gene mcm2, HCT-116, Dis 48 h vs untreated
  Log2 fold change, mcm2: −0.6
[1]; gene mcm4, HCT-116, Dis 48 h vs untreated
  Log2 fold change, mcm4: −0.6
[1]; gene mcm7, HCT-116, Dis 48 h vs untreated
  Log2 fold change, mcm7: −0.6
[1]; gene msh2, HCT-116, Dis 48 h vs untreated
  Log2 fold change, msh2: −0.7
[1]; gene nbn, HCT-116, Dis 48 h vs untreated
  Log2 fold change, nbn: −0.5
[1]; gene pcna, HCT-116, Dis 48 h vs untreated
  Log2 fold change, pcna: −0.6
[1]; gene pole2, HCT-116, Dis 48 h vs untreated
  Log2 fold change, pole2: −1.4
[1]; gene pttg2, HCT-116, Dis 48 h vs untreated
  Log2 fold change, pttg2: −0.9
[1]; gene rad21, HCT-116, Dis 48 h vs untreated
  Log2 fold change, rad21: −0.8
[1]; gene rbx1, HCT-116, Dis 48 h vs untreated
  Log2 fold change, rbx1: −1.2
[1]; gene setd2, HCT-116, Dis 48 h vs untreated
  Log2 fold change, setd2: 0.7
[1]; gene sfn (stratifin), HCT-116, Dis 48 h vs untreated
  Log2 fold change, sfn (stratifin): 0.6
[1]; gene sin3, HCT-116, Dis 48 h vs untreated
  Log2 fold change, sin3: −0.5
[1]; gene smad9, HCT-116, Dis 48 h vs untreated
  Log2 fold change, smad9: −2.7
[1]; gene smc3, HCT-116, Dis 48 h vs untreated
  Log2 fold change, smc3: −0.7
[1]; gene stmn1, HCT-116, Dis 48 h vs untreated
  Log2 fold change, stmn1: −1.5
[1]; gene tnfrsf10b, HCT-116, Dis 48 h vs untreated
  Log2 fold change, tnfrsf10b: 0.8
[1]; gene ttk, HCT-116, Dis 48 h vs untreated
  Log2 fold change, ttk: −1.0
[1]; gene ubb, HCT-116, Dis 48 h vs untreated
  Log2 fold change, ubb: −0.9
[2]
  IC50: 29 µg/mL (≈ 96.6 µM)
[3]
  IC50: 12 µg/mL (≈ 40 µM)
[4]
  IC50: 1.35 µg/mL (≈ 4.5 µM)
[5]; HT-29, 24 h
  IC50: 44.5 ± 1.75 µg/mL (≈ 148 µM)
[5]; HT-29, 48 h
  IC50: 17.6 ± 0.61 µg/mL (≈ 58.4 µM)
[5]; HT-29, 72 h
  IC50: 11.46 ± 0.1 µg/mL (≈ 38.2 µM)
[5]; IC50 CCD-841 / IC50 HT-29, 24 h
  Selectivity Index (SI): 5.31
[5]; IC50 CCD-841 / IC50 HT-29, 48 h
  Selectivity Index (SI): 2.96
[5]; IC50 CCD-841 / IC50 HT-29, 72 h
  Selectivity Index (SI): 3.53
[6]
  Cytochrome C release: releases of Cytochrome C from mitochondria to cytosol
[6]; Mitotracker uptake
  mitochondrial membrane potential: losses of the mitochondrial membrane potential
[6]; YoYo dye
  cell permeability: increases
[7]
  IC50: 30 µg/mL (≈ 99.9 µM)

— PMC6435658, “Investigation into the Molecular Mechanisms underlying the Anti-proliferative and Anti-tumorigenesis activities of Diosmetin against HCT-116 Human Colorectal Cancer” (Scientific Reports, 2019)
